Source: PubChem BioAssay AID248 (DTP/NCI, 2004)
“And” between values parts separate entries of the source, which are not always exact repeats. Equal entries are not always repeated. Inconclusive results and toxic doses are left out. No stated cut-off is given here; in the data, active means T/C of 150% or more; inactive means T/C below 125%.

Test system: L1210 leukemia ip in BDF1 mice, survival T/C
Experiment: NCI In Vivo Anticancer Drug Screen. Data for tumor model L1210 Leukemia (intraperitoneal) in B6D2F1 (BDF1) mice
Conditions: endpoint: mean survival time, higher = longer survival
How it was run: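 Each compound was tested against a transplantable tumor grown in mice. The endpoint was survival, with treated animals benchmarked against vehicle controls as a simple ratio.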

[1] = dose: 100.0 mg/kg/injection, schedule: Q01DX009 (ip), vehicle: Klucel (hydroxypropylcellulose) (HPC)
[2] = dose: 200.0 mg/kg/injection, schedule: Q01DX009 (ip), vehicle: Klucel (hydroxypropylcellulose) (HPC)
[3] = dose: 100.0 mg/kg/injection, schedule: Q04DX002 (ip), vehicle: saline with Tween-80
[4] = dose: 200.0 mg/kg/injection, schedule: Q04DX002 (ip), vehicle: saline with Tween-80
[5] = dose: 100.0 mg/kg/injection, schedule: Q04DX003 (ip), vehicle: Klucel (hydroxypropylcellulose) (HPC)
[6] = dose: 200.0 mg/kg/injection, schedule: Q04DX003 (ip), vehicle: Klucel (hydroxypropylcellulose) (HPC)
[7] = dose: 400.0 mg/kg/injection, schedule: Q01DX009 (ip), vehicle: Klucel (hydroxypropylcellulose) (HPC)
[8] = dose: 400.0 mg/kg/injection, schedule: Q04DX003 (ip), vehicle: Klucel (hydroxypropylcellulose) (HPC)
[9] = dose: 75.0 mg/kg/injection, schedule: Q01DX001 (ip), vehicle: saline
[10] = dose: 300.0 mg/kg/injection, schedule: Q01DX001 (ip), vehicle: saline
[11] = dose: 100.0 mg/kg/injection, schedule: Q04DX003 (ip), vehicle: saline with Tween-80
[12] = dose: 200.0 mg/kg/injection, schedule: Q04DX003 (ip), vehicle: saline with Tween-80
[13] = dose: 400.0 mg/kg/injection, schedule: Q04DX003 (ip), vehicle: saline with Tween-80
[14] = dose: 25.0 mg/kg/injection, schedule: Q01DX009 (ip), vehicle: saline with Tween-80
[15] = dose: 50.0 mg/kg/injection, schedule: Q01DX009 (ip), vehicle: saline with Tween-80
[16] = dose: 150.0 mg/kg/injection, schedule: Q01DX001 (ip), vehicle: saline
[17] = dose: 100.0 mg/kg/injection, schedule: Q04DX002 (ip), vehicle: Klucel (hydroxypropylcellulose) (HPC)
[18] = dose: 200.0 mg/kg/injection, schedule: Q04DX002 (ip), vehicle: Klucel (hydroxypropylcellulose) (HPC)
[19] = dose: 400.0 mg/kg/injection, schedule: Q04DX002 (ip), vehicle: Klucel (hydroxypropylcellulose) (HPC)

Measured: T/C

O=C(O)c1cc(N=C2C=CC(=C(c3ccccc3)c3ccc(Nc4ccc(Cl)c(C(=O)O)c4)cc3)C=C2)ccc1Cl
inactive: dose: 100.0 mg/kg/injection, schedule: Q01DX001 (ip), vehicle: other 97 % of control | [1] 105 % of control | dose: 200.0 mg/kg/injection, schedule: Q01DX001 (ip), vehicle: other 100 % of control | [2] 97 % of control | dose: 400.0 mg/kg/injection, schedule: Q01DX001 (ip), vehicle: other 103 % of control

O=C(N/N=C\c1ccc(F)cc1)N/N=C/c1ccc(F)cc1
inactive: [3] 93 % of control | [4] 96 % of control | dose: 400.0 mg/kg/injection, schedule: Q04DX002 (ip), vehicle: saline with Tween-80 104 % of control

COc1ccc(/C=N/n2c3ccccc3c3ccccc32)cc1OCCCN(C)C
inactive: dose: 3.12 mg/kg/injection, schedule: Q01DX009 (ip), vehicle: saline 98 % of control | dose: 6.25 mg/kg/injection, schedule: Q01DX009 (ip), vehicle: saline 102 % of control | dose: 25.0 mg/kg/injection, schedule: Q04DX003 (ip), vehicle: alcohol 93 % of control | dose: 50.0 mg/kg/injection, schedule: Q04DX003 (ip), vehicle: alcohol 93 % of control

CN(C)N=Nc1ccccc1C#N
inactive: dose: 50.0 mg/kg/injection, schedule: Q01DX009 (ip), vehicle: Klucel (hydroxypropylcellulose) (HPC) 103 % of control | [1] 108 % of control | [5] 112 % of control | [2] 113 % of control | [6] 113 % of control | [7] 105 % of control and 120 % of control | [8] 107 % of control

O=C1c2ccccc2-c2c(Br)cccc21
inactive: dose: 50.0 mg/kg/injection, schedule: Q04DX002 (ip), vehicle: saline with Tween-80 91 % of control | [3] 91 % of control | [4] 102 % of control

O=C(Nc1cccc(Cl)c1)Nc1cc(C(F)(F)F)ccc1Cl
inactive: dose: 50.0 mg/kg/injection, schedule: Q01DX001 (ip), vehicle: carboxymethylcellulose (CMC) 96 % of control | dose: 100.0 mg/kg/injection, schedule: Q01DX001 (ip), vehicle: carboxymethylcellulose (CMC) 100 % of control | dose: 200.0 mg/kg/injection, schedule: Q01DX001 (ip), vehicle: carboxymethylcellulose (CMC) 91 % of control | dose: 400.0 mg/kg/injection, schedule: Q01DX001 (ip), vehicle: carboxymethylcellulose (CMC) 100 % of control

CCCCCCCCCCCCCCCCCCNc1ccc(C(=O)OCC)cc1
inactive: dose: 37.5 mg/kg/injection, schedule: Q01DX009 (ip), vehicle: saline 94 % of control | [9] 86 % of control | dose: 75.0 mg/kg/injection, schedule: Q01DX009 (ip), vehicle: saline 95 % of control | dose: 75.0 mg/kg/injection, schedule: Q04DX003 (ip), vehicle: saline 87 % of control | dose: 150.0 mg/kg/injection, schedule: Q01DX009 (ip), vehicle: saline 96 % of control | dose: 150.0 mg/kg/injection, schedule: Q04DX003 (ip), vehicle: saline 87 % of control | [10] 88 % of control | dose: 300.0 mg/kg/injection, schedule: Q04DX003 (ip), vehicle: saline 92 % of control

O=C(NCCNC(=O)Nc1ccc(Cl)cc1)Nc1ccc(Cl)cc1
inactive: [1] 96 % of control | [5] 98 % of control | [2] 94 % of control | [6] 93 % of control | [7] 91 % of control | [8] 92 % of control

CC(=O)N(C(C)=O)N(C(C)=O)C(=O)c1ccccn1
inactive: dose: 100.0 mg/kg/injection, schedule: Q01DX001 (ip), vehicle: water 106 % of control | dose: 200.0 mg/kg/injection, schedule: Q01DX001 (ip), vehicle: water 101 % of control | dose: 400.0 mg/kg/injection, schedule: Q01DX001 (ip), vehicle: water 106 % of control

CCCCOc1ccc(OC(=O)Nc2cc(C)ccc2C)cc1
inactive: [1] 91 % of control | [5] 108 % of control | [2] 96 % of control | [6] 95 % of control | [7] 98 % of control | [8] 90 % of control

CC(C)(C)c1cccc(OS(=O)(=O)c2cccc([N+](=O)[O-])c2)c1
inactive: [11] 95 % of control | [12] 100 % of control | [13] 100 % of control

COc1ccc(/C=N/NC(=O)CCCCCCCCC(=O)N/N=C/c2ccc(OC)c(OC)c2)cc1OC
inactive: [14] 98 % of control and 105 % of control | [15] 97 % of control and 101 % of control | dose: 100.0 mg/kg/injection, schedule: Q01DX001 (ip), vehicle: saline with Tween-80 95 % of control | dose: 100.0 mg/kg/injection, schedule: Q04DX002 (ip), vehicle: saline 90 % of control | [11] 94 % of control | dose: 200.0 mg/kg/injection, schedule: Q01DX001 (ip), vehicle: saline with Tween-80 114 % of control | dose: 200.0 mg/kg/injection, schedule: Q04DX002 (ip), vehicle: saline 97 % of control and 90 % of control | [12] 109 % of control | dose: 400.0 mg/kg/injection, schedule: Q04DX002 (ip), vehicle: saline 101 % of control and 103 % of control | [13] 96 % of control

Nc1nc(O)c2[nH]c(N=Nc3ccc(-c4ccc(N=Nc5nc6nc(N)nc(O)c6[nH]5)cc4)cc3)nc2n1
inactive: [5] 98 % of control | [6] 93 % of control | [8] 88 % of control

Clc1ccccc1Br
inactive: dose: 100.0 mg/kg/injection, schedule: Q01DX007 (ip), vehicle: saline with Tween-80 104 % of control | [11] 95 % of control | dose: 200.0 mg/kg/injection, schedule: Q01DX007 (ip), vehicle: saline with Tween-80 98 % of control | [12] 96 % of control | dose: 400.0 mg/kg/injection, schedule: Q01DX007 (ip), vehicle: saline with Tween-80 96 % of control | [13] 98 % of control

COC(=O)CCC(C)C1CCC2C3C(O)CC4CC(OC(C)=O)CCC4(C)C3CC(O)C12C (stereo not drawn)
inactive: dose: 50.0 mg/kg/injection, schedule: Q01DX009 (ip), vehicle: carboxymethylcellulose (CMC) 102 % of control and 103 % of control | dose: 50.0 mg/kg/injection, schedule: Q04DX003 (ip), vehicle: carboxymethylcellulose (CMC) 95 % of control | dose: 100.0 mg/kg/injection, schedule: Q01DX009 (ip), vehicle: carboxymethylcellulose (CMC) 95 % of control and 98 % of control | dose: 100.0 mg/kg/injection, schedule: Q04DX002 (ip), vehicle: carboxymethylcellulose (CMC) 96 % of control and 101 % of control | dose: 100.0 mg/kg/injection, schedule: Q04DX003 (ip), vehicle: carboxymethylcellulose (CMC) 95 % of control | dose: 200.0 mg/kg/injection, schedule: Q01DX009 (ip), vehicle: carboxymethylcellulose (CMC) 88 % of control and 92 % of control | dose: 200.0 mg/kg/injection, schedule: Q04DX002 (ip), vehicle: carboxymethylcellulose (CMC) 96 % of control and 91 % of control | dose: 200.0 mg/kg/injection, schedule: Q04DX003 (ip), vehicle: carboxymethylcellulose (CMC) 88 % of control | dose: 400.0 mg/kg/injection, schedule: Q04DX002 (ip), vehicle: carboxymethylcellulose (CMC) 86 % of control and 91 % of control

OC1(CCCc2ccccc2)CCNCC1
inactive: [9] 104 % of control | [16] 110 % of control

CCCCCCCCCCOP(OCCCCCCCCCC)Oc1ccccc1
inactive: dose: 100.0 mg/kg/injection, schedule: Q04DX003 (ip), vehicle: saline 102 % of control | dose: 200.0 mg/kg/injection, schedule: Q04DX003 (ip), vehicle: saline 93 % of control | dose: 400.0 mg/kg/injection, schedule: Q04DX003 (ip), vehicle: saline 102 % of control

CCCCCCCCCCCCNC=O
inactive: dose: 100.0 mg/kg/injection, schedule: Q01DX009 (ip), vehicle: saline 94 % of control

O=C1OC(=O)c2c1cccc2[N+](=O)[O-]
inactive: [14] 97 % of control | [15] 90 % of control | dose: 100.0 mg/kg/injection, schedule: Q01DX009 (ip), vehicle: saline with Tween-80 94 % of control and 88 % of control

Cc1ccc(-n2ccnc2)c(N=Cc2ccc(N(CCCl)CCCl)cc2Cl)c1
inactive: [17] 102 % of control | [18] 102 % of control | [19] 102 % of control

O=c1[nH]c(Cl)ncc1F
inactive: [9] 95 % of control | [16] 96 % of control | [10] 102 % of control

CCC(C)(C)NC(N)=O
inactive: [17] 99 % of control | [18] 92 % of control | [19] 96 % of control
